≈ marks a conversion by molar mass, not a printed value. Blank lines part the entries; values can stand above or below the compound they belong to.
What was measured:
physchem = type: physicochemical; conditions: 37 °C, pH 6.5, fassif, thermodynamic from solid, apparent solubility
Experimental: Excess powder (at least 2‐3 times the expected equilibrium solubility) was added to 10 mL preheated simulated intestinal fluids, and the dissolution was monitored until a plateau was reached. […] This is in line with previously reported observations.^[ [26], [27] ^] […] This is likely because of the neutral and more lipophilic properties of felodipine (Table 1), where it is expected to see a larger benefit of the solubilization properties of the formed micelles.
The dissolution and apparent solubilities of two poorly water‐soluble drugs, indomethacin and felodipine, were determined in the simulated intestinal fluids using a MicroDISS Profiler (pION Inc Ltd, East Sussex, UK). In each experiment (n ≥ 3), excess powder (at least 2‐3 times) compared to the expected solubility value was added to 10 mL simulated intestinal fluid. The experiments were performed at 37 °C using a stirring rate of 150 rpm, while the samples were scanned by individual UV probes every 10–30 s. […] The concentrations were determined based on the area under the curve in second derivative spectra evaluated over a range of wavelengths. […] The hydrodynamic size of the simulated intestinal fluids and drugs dissolved in the different simulated intestinal fluids was determined using a Malvern Zetasizer Nano ZSP (Malvern Instruments, Worcestershire, UK) with single‐use disposable microcuvettes. […]

[1] = set-up: method as in PMID 20507160; conditions: cited from earlier work
[2] = cited from earlier work

solubility (physchem): 49.3 ± 1.9 µg/mL (≈ 128 µM)
Compound: CCOC(=O)C1=C(C)NC(C)=C(C(=O)OC)C1c1cccc(Cl)c1Cl (stereo not drawn) [Felodipine, felodipine]
LogP [1]: 5.58
Charge (pH 6.5) [1]: 0

Compound: COc1ccc2c(c1)c(CC(=O)O)c(C)n2C(=O)c1ccc(Cl)cc1 [Indomethacin, indomethacin]
LogP [1]: 3.51
Charge (pH 6.5) [1]: −1

Compound: C[C@H](CCC(=O)NCCS(=O)(=O)O)[C@H]1CC[C@H]2[C@@H]3[C@H](O)C[C@@H]4C[C@H](O)CC[C@]4(C)[C@H]3C[C@H](O)[C@]12C [Taurocholic acid, taurocholic acid]
CMC [2]: 3 to 8 mM

From article PMC12499404, “Colloidal Interactions in Simulated Intestinal Fluids: Implications for Oral Drug Delivery at the Nanoscale” (Small Science, 2025)
